The text below walks through data of patent US20240018161A1, “MODULATORS OF CYSTIC FIBROSIS TRANSMEMBRANE CONDUCTANCE REGULATOR” (VERTEX PHARMACEUTICALS INCORPORATED, priority 2020, published 2024).

This assay deals with CFTR-mediated chloride transport in human intestinal epithelial enteroid cells (Homo sapiens, UniProt P13569). As to the kind of experiment: Membrane potential dye, Enteroid Assay A. Type of assay: cell-based. The conditions noted are these: for EC50: read-out: Ent. A EC50. The protocol:
Base medium (ADF+++) consisted of Advanced DMEM/Ham's F12, 2 mM Glutamax, 10 mM HEPES, […] penicillin/streptomycin.
Bath 1 Buffer consisted of 1 mM MgCl2, 160 mM NaCl, 4.5 mM KCl, 10 mM HEPES, 10 mM Glucose, 2 mM CaCl2.
Chloride Free Buffer consisted of 1 mM Magnesium Gluconate, 2 mM Calcium Gluconate, 4.5 mM Potassium Gluconate, 160 mM Sodium Gluconate, 10 mM HEPES, 10 mM Glucose.
Bath1 Dye Solution consisted of Bath 1 Buffer, 0.04% Pluronic F127, 20 μM Methyl Oxonol, 30 μM CaCCinh-A01, 30 μM Chicago Sky Blue.
Chloride Free Dye Solution consisted of Chloride Free Buffer, 0.04% Pluronic F127, 20 μM Methyl Oxonol, 30 μM CaCCinh-A01, 30 μM Chicago Sky Blue.
3. Enteroid Cell Harvesting and Seeding
Cells were recovered in cell recovery solution, collected by centrifugation at 650 rpm for 5 min at 4° C., resuspended in TryPLE and incubated for 5 min at 37° C. Cells were then collected by centrifugation at 650 rpm for 5 min at 4° C. and resuspended in IEMM containing 10 μM ROCK inhibitor (RI).
4. Membrane Potential Dye, Enteroid Assay A
Briefly, cells were washed 5 times in Bath 1 Buffer. Bath 1 Dye Solution was added, and the cells were incubated for 25 min at room temperature. Following dye incubation, cells were washed 3 times in Chloride Free Dye Solution. Chloride transport was initiated by addition of Chloride Free Dye Stimulation Solution and the fluorescence signal was read for 15 min. […] Chloride transport was then expressed as a percentage of the chloride transport following treatment with 3 μM N-[(6-amino-2-pyridyl)sulfonyl]-6-(3-fluoro-5-isobutoxy-phenyl)-2-[(4S)-2,2,4-trimethylpyrrolidin-1-yl]pyridine-3-carboxamide, 3 μM (R)-1-(2,2-difluorobenzo[d][1,3]dioxol-5-yl)-N-(1-(2,3-dihydroxypropyl)-6-fluoro-2-(1-hydroxy-2-methylpropan-2-yl)-1H-indol-5-yl)cyclopropanecarboxamide and 300 nM acute N-[2,4-bis(1,1-dimethylethyl)-5-hydroxyphenyl]-1,4-dihydro-4-oxoquinoline-3-carboxamide triple combination control (% Activity).

Setting [1] is: enteroid cells incubated with test compound 18-24 hours, acute 10 μM forskolin and 300 nM N-[2,4-bis(1,1-dimethylethyl)-5-hydroxyphenyl]-1,4-dihydro-4-oxoquinoline-3-carboxamide.
The mark [2] stands for this setting: percentage of chloride transport of triple combination control (3 μM N-[(6-amino-2-pyridyl)sulfonyl]-6-(3-fluoro-5-isobutoxy-phenyl)-2-[(4S)-2,2,4-trimethylpyrrolidin-1-yl]pyridine-3-carboxamide based).

The structures appear in SMILES notation. Like-named read-outs stand apart in the source and are kept apart here.

Sequence of CFTR-mediated chloride transport in human intestinal epithelial enteroid cells (P13569 with tags, fused parts or gaps DEL508-508): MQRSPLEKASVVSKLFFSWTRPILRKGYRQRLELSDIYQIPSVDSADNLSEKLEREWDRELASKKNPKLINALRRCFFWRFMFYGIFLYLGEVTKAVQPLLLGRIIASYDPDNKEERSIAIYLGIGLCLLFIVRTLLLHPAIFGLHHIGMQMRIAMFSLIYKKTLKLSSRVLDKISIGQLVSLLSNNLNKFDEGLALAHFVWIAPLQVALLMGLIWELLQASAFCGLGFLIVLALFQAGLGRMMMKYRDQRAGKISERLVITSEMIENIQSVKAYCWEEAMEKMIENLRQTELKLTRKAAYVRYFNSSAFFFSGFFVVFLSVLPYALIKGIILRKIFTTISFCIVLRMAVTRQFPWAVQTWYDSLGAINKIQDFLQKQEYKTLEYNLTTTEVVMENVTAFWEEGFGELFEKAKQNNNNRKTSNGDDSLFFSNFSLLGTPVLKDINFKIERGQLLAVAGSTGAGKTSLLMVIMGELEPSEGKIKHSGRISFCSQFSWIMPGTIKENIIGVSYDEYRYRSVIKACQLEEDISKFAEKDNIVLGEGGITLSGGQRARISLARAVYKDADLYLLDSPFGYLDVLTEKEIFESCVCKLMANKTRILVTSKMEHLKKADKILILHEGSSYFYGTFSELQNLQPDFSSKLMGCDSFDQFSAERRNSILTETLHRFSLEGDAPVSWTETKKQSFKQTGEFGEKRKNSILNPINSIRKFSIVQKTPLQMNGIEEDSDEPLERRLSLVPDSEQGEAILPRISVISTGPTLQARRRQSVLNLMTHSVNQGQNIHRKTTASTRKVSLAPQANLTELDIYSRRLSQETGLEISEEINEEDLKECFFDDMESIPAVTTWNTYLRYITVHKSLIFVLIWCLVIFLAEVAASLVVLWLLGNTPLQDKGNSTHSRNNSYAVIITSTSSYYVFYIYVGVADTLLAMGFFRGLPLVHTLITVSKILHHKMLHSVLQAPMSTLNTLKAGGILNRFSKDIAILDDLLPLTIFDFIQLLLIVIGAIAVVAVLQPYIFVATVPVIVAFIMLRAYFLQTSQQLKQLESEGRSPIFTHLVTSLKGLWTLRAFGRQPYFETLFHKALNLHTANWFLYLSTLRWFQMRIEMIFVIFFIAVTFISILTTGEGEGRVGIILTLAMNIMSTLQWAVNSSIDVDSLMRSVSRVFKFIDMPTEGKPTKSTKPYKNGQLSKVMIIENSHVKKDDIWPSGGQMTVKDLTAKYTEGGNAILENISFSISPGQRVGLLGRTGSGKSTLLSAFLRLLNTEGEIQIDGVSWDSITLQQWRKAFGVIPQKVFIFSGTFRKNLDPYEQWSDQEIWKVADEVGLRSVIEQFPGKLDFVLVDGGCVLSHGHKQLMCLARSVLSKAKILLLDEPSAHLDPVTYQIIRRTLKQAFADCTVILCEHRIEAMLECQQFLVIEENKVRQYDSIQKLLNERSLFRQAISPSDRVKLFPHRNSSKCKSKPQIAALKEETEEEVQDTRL

One may read the EC50 as the concentration needed to bring the measured effect to its halfway point. Take `Cc1cccc(C)c1-c1cc2nc(n1)NS(=O)(=O)c1cccc(c1)C(=O)N1CCN(Cc3nccs3)CC(C1)O2` (stereo not drawn) [Compound 52]: under setting [1], the EC50 is 1 to 3 µM. Further, the “Ent. A Max Activity (%)” value under setting [2] was “++ (++ is 30-60%)”.
As for `Cc1cccc(C)c1-c1cc2nc(n1)NS(=O)(=O)c1cccc(c1)C(=O)N1CCN(Cc3cccc(C#N)c3)C[C@@H]1CO2` [Compound 267], under setting [1], the EC50 fell in the range of 1 to 3 µM. In addition, under setting [2], the “Ent. A Max Activity (%)” value is “+++ (+++ is >60%)”.
`Cc1cccc(C)c1-c1cc2nc(n1)NS(=O)(=O)c1cccc(c1)C(=O)N1CCC(c3ccccc3)C(C1)O2` (stereo not drawn) [Compound 317]: under setting [1], the concentration for a half-maximal effect (EC50) was less than 1 µM. Further, the “Ent. A Max Activity (%)” value under setting [2] is recorded as “+++ (+++ is >60%)”.
Take `Cc1cccc(C)c1-c1cc2nc(n1)NS(=O)(=O)c1cccc(c1)C(=O)N1CCN([C@@H](C)C(C)(C)C)C[C@H](C1)O2` (single isomer, unassigned) [Compound 72]: under “Enteroid Assay A”, the “Ent. A Max Activity (%)” value is reported as “+++ (+++ is >600%)” and the concentration for a half-maximal effect (EC50) is less than 1 µM.
As to `Cc1cccc(C)c1-c1cc2nc(n1)NS(=O)(=O)c1cccc(c1)C(=O)N1CC(CCC1c1ccccc1)O2` (single isomer, unassigned) [Compound 226, 18-(2,6-Dimethylphenyl)-6-phenyl-2-oxa-14λ^6-thia-7,15,17,20-tetraazatetracyclo[14.3.1.13,7.19,13]docosa-1(19),9(21),10,12,16(20),17-hexaene-8,14,14-trione], the EC50 under setting [1] is less than 1 µM. Also, the “Ent. A Max Activity (%)” value under setting [2] is listed as “++ (++ is 30-60%)”.
Regarding `Cc1cccc(C)c1-c1cc2nc(n1)NS(=O)(=O)c1cccc(c1)CCC(=O)N1CCCC(C1)O2` (stereo not drawn) [Compound 353], the “Ent. A Max Activity (%)” value under setting [2] was “+ (+ is <300%)”.
`Cc1cccc(C)c1-c1cc2nc(n1)NS(=O)(=O)c1cccc(c1)C(=O)N1CCN(CC3CCCC3)C[C@@H]1CO2` [Compound 260]: under setting [1], the half-maximal effective concentration (EC50) is less than 1 µM. Also, the “Ent. A Max Activity (%)” value under setting [2] is reported as “+++ (+++ is >60%)”.
With `Cc1cccc(C)c1-c1cc2nc(n1)NS(=O)(=O)c1cccc(c1)C(=O)N1CCN(C3CC4(CCCC4)C3)C[C@H](C1)O2` [Compound 8, (16R)-12-(2,6-Dimethylphenyl)-18-{spiro[3.4]octan-2-yl}-15-oxa-8λ^6-thia-1,9,11,18,22-pentaazatetracyclo[14.4.1.13,7.110,14]tricosa-3(23),4,6,10(22),11,13-hexaene-2,8,8-trione], where the note is “Enteroid Assay A”, the “Ent. A Max Activity (%)” value is “+++ (+++ is >600%)” and the EC50 is less than 1 µM.
With `Cc1cccc(C)c1-c1cc2nc(n1)NS(=O)(=O)c1cccc(c1)C(=O)N1CC3C(CCCN3C)[C@@H](C1)O2` (single isomer, unassigned) [Compound 203, 12-(2,6-dimethylphenyl)-21-methyl-15-oxa-8λ^6-thia-1,9,11,21,25-pentaazapentacyclo[14.7.1.13,7.110,14.017,22]hexacosa-3,5,7(26),10(25),11,13-hexaene-2,8,8-trione], where the note is “Enteroid Assay A”, the “Ent. A Max Activity (%)” value is on record as “++ (++ is 30-60%)” and the EC50 is 3 to 30 µM.
With `Cc1cccc(C)c1-c1cc2nc(n1)NS(=O)(=O)c1cccc(c1)C(=O)N1CCN(Cc3cocn3)C[C@@H]1CO2` [Compound 283], the “Ent. A Max Activity (%)” value under setting [2] is “++ (++ is 30-60%)”.
Take `Cc1cccc(C)c1-c1cc2nc(n1)NS(=O)(=O)N1CCc3ccc(cc31)C(=O)N1Cc3ccccc3[C@@H](O2)[C@H]1CC(C)C` [Compound 250]: for the setting “Enteroid Assay A”, the “Ent. A Max Activity (%)” value was “++ (++ is 30-60%)” and the EC50 lay in the range of 1 to 3 µM.
Taken in the same sequence, the figures for `Cc1cccc(C)c1-c1cc2nc(n1)NS(=N)(=O)c1cccc(c1)C(=O)N1CCN(Cc3ccccc3)CC(C1)O2` (stereo not drawn) [Compound 246] were “++ (++ is 30-60%)” and 1 to 3 µM.
For the compound `COC(=O)C1CC2CN(C1)C(=O)Nc1cccc(c1)S(=O)(=O)Nc1nc(cc(-c3c(C)cccc3C)n1)O2` (stereo not drawn) [Compound 252], under setting [1], the concentration for a half-maximal effect (EC50) fell in the range of 1 to 3 µM. For the same compound, under setting [2], the “Ent. A Max Activity (%)” value is recorded as “++ (++ is 30-60%)”.
Taken in the same sequence, the figures for `Cc1cccc(C)c1-c1cc2nc(n1)NS(=O)(=O)c1cccc(c1)C(=O)N1CCC[C@@H]1CO2` [Compound 367] were 3 to 30 µM and “+++ (+++ is >60%)”.
Regarding `Cc1cccc(C)c1-c1cc2nc(n1)NS(=O)(=O)c1cccc(c1)C(=O)N1CCN(Cc3ccccc3)CC1CO2` (stereo not drawn) [Compound 169, 6-Benzyl-13-(2,6-dimethylphenyl)-10-oxa-17λ^6-thia-3,6,14,16,23-pentaazatetracyclo[16.3.1.111,15.03,8]tricosa-1(21),11,13,15(23),18(22),19-hexaene-2,17,17-trione], the concentration giving a half-maximal response (EC50) under setting [1] was less than 1 µM. The “Ent. A Max Activity (%)” value under setting [2] is given as “+++ (+++ is >60%)”.
For `Cc1cccc(C)c1-c1cc2nc(n1)NS(=O)(=O)c1cccc(c1)C(=O)N1CCN(C3CC4(CC4)C3)C[C@H](C1)O2` [Compound 23], where the note is “Enteroid Assay A”, the “Ent. A Max Activity (%)” value is “+++ (+++ is >600%)” and the concentration for a half-maximal effect (EC50) is less than 1 µM.
For `Cc1cccc(C)c1-c1cc2nc(n1)NS(=O)(=O)c1cccc(c1)C(=O)N1CCN(CC(C)C)C[C@@H]1CO2` [Compound 269], the 50% effective concentration (EC50) under setting [1] was less than 1 µM. For the same compound, the “Ent. A Max Activity (%)” value under setting [2] is reported as “+++ (+++ is >60%)”.
As for `Cc1cccc(C)c1-c1cc2nc(n1)NS(=O)(=O)c1cccc(c1)C(=O)N1C[C@@H](CN(C3CC4(CCCCC4)C3)C[C@H]1C(C)C)O2` [Compound 128, (16R,20R)-12-(2,6-dimethylphenyl)-20-(propan-2-yl)-18-{spiro[3.5]nonan-2-yl}-15-oxa-8λ^6-thia-1,9,11,18,22-pentaazatetracyclo[14.4.1.13,7.110,14]tricosa-3(23),4,6,10(22),11,13-hexaene-2,8,8-trione], for the setting “Enteroid Assay A”, the “Ent. A Max Activity (%)” value is reported as “++ (++ is 30-60%)” and the 50% effective concentration (EC50) was less than 1 µM.
`Cc1cccc(C)c1-c1cc2nc(n1)NS(=O)(=O)c1cccc(c1)C(=O)N1CCN(C(=O)CC34CC5CC(CC(C5)C3)C4)C[C@H](C1)O2` [Compound 79, (16R)-18-[2-(Adamantan-1-yl)acetyl]-12-(2,6-dimethylphenyl)-15-oxa-8λ^6-thia-1,9,11,18,22-pentaazatetracyclo[14.4.1.13,7.110,14]tricosa-3(23),4,6,10,12,14(22)-hexaene-2,8,8-trione]: where the note is “Enteroid Assay A”, the “Ent. A Max Activity (%)” value is on record as “+++ (+++ is >600%)” and the concentration for a half-maximal effect (EC50) is less than 1 µM.
For `Cc1cccc(C)c1-c1cc2nc(n1)NS(=O)(=O)c1cccc(c1)C(=O)N1CCNCC(O2)C1CC(C)C` (stereo not drawn) [Compound 93, 12-(2,6-Dimethylphenyl)-21-(2-methylpropyl)-15-oxa-8λ^6-thia-1,9,11,18,22-pentaazatetracyclo[14.4.1.13,7.110,14]tricosa-3(23),4,6,10(22),11,13-hexaene-2,8,8-trione], where the note is “Enteroid Assay A”, the “Ent. A Max Activity (%)” value is recorded as “+++ (+++ is >600%)” and the EC50 is 1 to 3 µM.
As for `Cc1cccc(C)c1-c1cc2nc(n1)NS(=O)(=O)c1cccc(c1)C(=O)N1CCN(CCC3CCOCC3)C[C@@H]1CO2` [Compound 263], the EC50 under setting [1] was 3 to 30 µM. The “Ent. A Max Activity (%)” value under setting [2] is “++ (++ is 30-60%)”.
Take `Cc1cccc(C)c1-c1cc2nc(n1)NS(=O)(=O)c1cccc(c1)C(=O)N1CCN(CC3C4(CC4)C34CC4)C[C@H](C1)O2` [Compound 17]: under “Enteroid Assay A”, the “Ent. A Max Activity (%)” value is on record as “+++ (+++ is >600%)” and the EC50 was less than 1 µM.
Taken in the same sequence, the figures for `Cc1cccc(C)c1-c1cc2nc(n1)NS(=O)(=O)c1cccc(c1)C(=O)N1C[C@@H](CNC[C@H]1CC(C)C)O2` [Compound 101, (16R,20R)-12-(2,6-Dimethylphenyl)-20-(2-methylpropyl)-15-oxa-8λ^6-thia-1,9,11,18,22-pentaazatetracyclo[14.4.1.13,7.110,14]tricosa-3(23),4,6,10,12,14(22)-hexaene-2,8,8-trione] were “++ (++ is 30-60%)” and less than 1 µM.
Turning to `CC(C)CCc1ccccc1-c1cc2nc(n1)NS(=O)(=O)c1cccc(c1)C(=O)N1Cc3ccccc3C(C1)O2` (stereo not drawn) [Compound 337], under setting [1], the 50% effective concentration (EC50) was less than 1 µM. Further, under setting [2], the “Ent. A Max Activity (%)” value is recorded as “++ (++ is 30-60%)”.
In the case of `Cc1cccc(C)c1-c1cc2nc(n1)NS(=O)(=O)c1cccc(c1)C(=O)N1CCCN(CCC3(C(F)(F)F)CC3)CC(C1)O2` (stereo not drawn) [Compound 358], where the note is “Enteroid Assay A”, the “Ent. A Max Activity (%)” value was “++ (++ is 30-60%)” and the EC50 was less than 1 µM.
